Data taken from PubChem BioAssay (NCI).
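96-well plates; 48 h exposure; 5 concentrations. Endpoints by linear interpolation between flanking doses. Not reached: highest tested concentration assigned. TGI marks complete inhibition of growth.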

How the values were obtained:
Experiment in all cases: NCI anticancer screen, dose series, 48 h
COLO 205 colon = test system: COLO 205 colon
RPMI-8226 leukemia = test system: RPMI-8226 leukemia
UO-31 renal = test system: UO-31 renal
SW-620 colon = test system: SW-620 colon
EKVX NSCLC = test system: EKVX NSCLC
T-47D breast = test system: T-47D breast
UACC-62 melanoma = test system: UACC-62 melanoma
MDA-MB-231 breast = test system: MDA-MB-231 breast
ACHN renal = test system: ACHN renal
SK-OV-3 ovarian = test system: SK-OV-3 ovarian
RXF 393 renal = test system: RXF 393 renal
A549 NSCLC = test system: A549 NSCLC
OVCAR-8 ovarian = test system: OVCAR-8 ovarian
LOX IMVI melanoma = test system: LOX IMVI melanoma
TK-10 renal = test system: TK-10 renal
OVCAR-4 ovarian = test system: OVCAR-4 ovarian
DU-145 prostate = test system: DU-145 prostate
NCI-H23 lung = test system: NCI-H23 lung
K-562 leukemia = test system: K-562 leukemia
SK-MEL-28 melanoma = test system: SK-MEL-28 melanoma
OVCAR-3 ovarian = test system: OVCAR-3 ovarian
HOP-62 NSCLC = test system: HOP-62 NSCLC
HS 578T breast = test system: HS 578T breast
HCT-15 colon = test system: HCT-15 colon
HCT-116 colon = test system: HCT-116 colon
UACC-257 melanoma = test system: UACC-257 melanoma
SF-295 CNS = test system: SF-295 CNS
SN12C renal = test system: SN12C renal
PC-3 prostate = test system: PC-3 prostate
MDA-MB-435 = test system: MDA-MB-435
OVCAR-5 ovarian = test system: OVCAR-5 ovarian
A498 renal = test system: A498 renal
KM12 colon = test system: KM12 colon
M14 melanoma = test system: M14 melanoma
CAKI-1 renal = test system: CAKI-1 renal
MCF7 breast = test system: MCF7 breast
MOLT-4 leukemia = test system: MOLT-4 leukemia
SNB-75 CNS = test system: SNB-75 CNS
NCI-H226 lung = test system: NCI-H226 lung
U251 CNS = test system: U251 CNS
BT-549 breast = test system: BT-549 breast
SF-539 CNS = test system: SF-539 CNS
SNB-19 CNS = test system: SNB-19 CNS
786-0 renal = test system: 786-0 renal
MALME-3M melanoma = test system: MALME-3M melanoma
SF-268 CNS = test system: SF-268 CNS
HT29 colon = test system: HT29 colon
HL-60(TB) leukemia = test system: HL-60(TB) leukemia
CCRF-CEM leukemia = test system: CCRF-CEM leukemia
HOP-92 NSCLC = test system: HOP-92 NSCLC
NCI-H460 lung = test system: NCI-H460 lung
SR leukemia = test system: SR leukemia

## c1ccc2c(c1)OC(N1CCCC1)c1cnc(N3CCCC3)nc1-2 (configuration not stated)
COLO 205 colon
  TGI: > 100 µM
RPMI-8226 leukemia
  TGI: 45.8 µM
UO-31 renal
  TGI: 87.7 µM
SW-620 colon
  TGI: > 100 µM
EKVX NSCLC
  TGI: 58.5 µM
T-47D breast
  TGI: 93.3 µM
UACC-62 melanoma
  TGI: > 100 µM
MDA-MB-231 breast
  TGI: > 100 µM
ACHN renal
  TGI: > 100 µM
SK-OV-3 ovarian
  TGI: > 100 µM
RXF 393 renal
  TGI: 47.8 µM
A549 NSCLC
  TGI: > 100 µM
OVCAR-8 ovarian
  TGI: > 100 µM
LOX IMVI melanoma
  TGI: > 100 µM
TK-10 renal
  TGI: > 100 µM
OVCAR-4 ovarian
  TGI: > 100 µM
DU-145 prostate
  TGI: > 100 µM
NCI-H23 lung
  TGI: > 100 µM
K-562 leukemia
  TGI: > 100 µM
SK-MEL-28 melanoma
  TGI: > 100 µM
OVCAR-3 ovarian
  TGI: 97.5 µM
HOP-62 NSCLC
  TGI: > 100 µM
HS 578T breast
  TGI: 89.7 µM
HCT-15 colon
  TGI: > 100 µM
HCT-116 colon
  TGI: > 100 µM
UACC-257 melanoma
  TGI: 40 µM
SF-295 CNS
  TGI: 82.1 µM
SN12C renal
  TGI: > 100 µM
PC-3 prostate
  TGI: > 100 µM
MDA-MB-435
  TGI: > 100 µM
OVCAR-5 ovarian
  TGI: > 100 µM
A498 renal
  TGI: 76 µM
KM12 colon
  TGI: > 100 µM
M14 melanoma
  TGI: > 100 µM
CAKI-1 renal
  TGI: 78 µM
MCF7 breast
  TGI: 52.9 µM
MOLT-4 leukemia
  TGI: 70.5 µM
SNB-75 CNS
  TGI: 57.1 µM
NCI-H226 lung
  TGI: > 100 µM
U251 CNS
  TGI: > 100 µM
BT-549 breast
  TGI: 60.9 µM
SF-539 CNS
  TGI: > 100 µM
SNB-19 CNS
  TGI: > 100 µM
786-0 renal
  TGI: > 100 µM
MALME-3M melanoma
  TGI: > 100 µM
SF-268 CNS
  TGI: > 100 µM
HT29 colon
  TGI: > 100 µM
HL-60(TB) leukemia
  TGI: 66.5 µM
CCRF-CEM leukemia
  TGI: 67.3 µM
HOP-92 NSCLC
  TGI: 47.3 µM
NCI-H460 lung
  TGI: > 100 µM
SR leukemia
  TGI: > 100 µM
